According to patent publication US6133039A, “In vivo method for determination of oxidative stress” (Washinton University, priority 2000, dated 2000):

Key:
[1] = 3-nitrotyrosine given to animals; Tabrizi-Fard et al.; cited from earlier work
[2] = Metabolic fate of radiolabeled dityrosine injected intravenously into mice (blood, tissue and urine radioactivity); assay type: in vivo
Experimental: Mice were injected with 2×10^5 cpm of [^14 C]dityrosine. FIG. 3A: Blood was collected at the indicated times by retro-orbital bleeding. FIG. 3B: Animals were sacrificed at the indicated times after injection of [^14 C]dityrosine. Recovery of radiolabeled material in tissues and urine was quantified by scintillation spectroscopy.
(§1) o,o'-[^14 C]Dityrosine (2×10^5 cpm) was injected into the animals intravenously. Plasma was centrifuged (400×g for 20 min at 4° C.) from blood collected by retro-orbital bleeding. Tissue samples were collected from animals killed by cervical dislocation, weighed and then homogenized in deionized water. Radioactivity in tissue homogenates, plasma, and urine was determined by liquid scintillation spectroscopy (Beckman LS 3801) with correction for quenching. [^14 C]Dityrosine was prepared from L-[^14 C]tyrosine (American Radiolabeled Chemicals Co.; St. Louis, Mo.) and o,o'-[^13 C12 ]dityrosine was prepared from L-[^13 C6 ]tyrosine (Cambridge Isotope Inc.; Andover, Mass.) using horseradish peroxidase (Boehringer Mannheim Biochemicals; Indianapolis, Ind.) and H2 O2 (Fisher Scientific Co.; Pittsburgh, Pa.) and isolated by reverse-phase HPLC; (27). o,o'-[^14 C]Dityrosine and radiolabeled material in urine were analyzed by HPLC (27) using a reverse-phase column (ODS ultrasphere, 250 mm×4.6 mm, particle size 5 μm.; Beckman,) and a flow rate of 1 ml/min. The column was equilibrated with 100% solvent A (1% acetic acid in water). Compounds were eluted with a discontinuous gradient of solvent B (1% acetic acid in methanol). The gradient was 0%-10% solvent B over 10 min, 10% solvent B for 4 min, 10%-100% solvent B over 5 min and 100% solvent B for 10 min. Prior to HPLC analysis, urinary amino acids were isolated by solid-phase extraction as outlined above. Recovery of radiolabeled material from urine subjected to this procedure was>90%. Radioactivity in each HPLC fraction was quantified by liquid scintillation spectroscopy.

[3] = tested on: peritoneal phagocytes of wild-type mice; test: Protein-bound o,o'-dityrosine in peritoneal leukocytes activated in vivo with zymosan, isotope dilution GC/MS; design: species or system mice (C57BL/6J)
Experimental: (§2) Thioglycolate-elicited peritoneal inflammatory cells were activated in vivo with zymosan. FIG. 2A: At the indicated time (n=3 animals) or FIG. 2B: 3 h after injection of zymosan, protein-bound o,o'-dityrosine in cellular proteins was quantified by isotope dilution GC/MS.
(§3) The animal studies committee of Washington University School of Medicine in St. Louis approved all protocols. The C57BL/6J mice used for these experiments were obtained from Jackson Laboratories (Bar Harbor, […].) and bred and maintained under pathogen-free conditions. Impaired O2^.cndot.- by phorbol ester-stimulated neutrophils isolated from CGD mice deficient in gp91 phox (13) was confirmed by monitoring the superoxide dimutase inhibitable reduction of ferricytochrome c (10). Mice were fed rodent diet 5001 (Harlan-Teklad, Madison, Wis.). Between ages 9 and 11 weeks, the mice were injected with one ml of 4% thioglycollate to recruit leukocytes into the peritoneum. The leukocytes were activated 20 hours (h) later by intraperitoneal injection of zymosan (250 mg/kg). Control animals were injected with one ml of buffer A (138 mM NaCl, 3 mM KCl, 0.1 M sodium phosphate, pH 7.4). Prior to and every 2 h during urine collection, the animals were injected intraperitoneally with 2 ml of buffer A.
Animals were killed by decapitation after metophane-induced anesthesia. After the abdominal wall was washed with 95% ethanol, leukocytes were harvested from the peritoneum using a siliconized glass pipette. The peritoneum was lavaged 3 times with 4 ml of ice-cold Hanks' Balanced Salt Solution (HBSS) containing 100 μM DTPA. Cells were suspended in ice-cold HBSS, collected by low speed centrifugation, and stored at -80° C. until analysis. […]
(§4) Amino acids were converted to their n-propyl esters, heptafluorobutyryl derivatives and quantified by isotope dilution gas chromatography/mass spectrometry (GC/MS) with selected ion monitoring (20,21). […] The ions monitored were: L-tyrosine, m/z 417 and 595; L-[^13 C6 ]tyrosine, m/z 423 and 601; o,o'-dityrosine, m/z 1030 and 1208; o,o'-[^13 C12 ]dityrosine, m/z 1042 and 1220.

[4] = Reverse-phase HPLC analysis of urine of animals injected intravenously with o,o'-[^14 C]dityrosine; assay type: in vivo, mice; details: urine after intravenous injection
Experimental: Urine collected from animals injected with [^14 C]dityrosine was subjected to reverse-phase HPLC analysis with monitoring of radioactivity by scintillation spectroscopy.
as §1, with “Compounds were eluted with a discontinuous gradient of solvent B (1% acetic acid in methanol). The gradient was 0%-10% solvent B over 10 min, 10% solvent B for 4 min, 10%-100% solvent B over 5 min and 100% solvent B for 10 min. Prior to HPLC analysis, urinary amino acids were isolated by solid-phase extraction as outlined above. Recovery of radiolabeled material from urine subjected to this procedure was>90%.” left out

[5] = tested on: peritoneal phagocytes; test: Recruitment of peritoneal cells by thioglycollate; assay type: in vivo, mice
Excerpt: as §3
Animals were killed by decapitation after metophane-induced anesthesia. After the abdominal wall was washed with 95% ethanol, leukocytes were harvested from the peritoneum using a siliconized glass pipette. The peritoneum was lavaged 3 times with 4 ml of ice-cold Hanks' Balanced Salt Solution (HBSS) containing 100 μM DTPA. Cells were suspended in ice-cold HBSS, collected by low speed centrifugation, and stored at -80° C. until analysis.
To determine whether white blood cells oxidatively damage proteins in vivo, isotope dilution GC/MS was used to quantify levels of o,o'-dityrosine in mouse peritoneal phagocytes. To recruit neutrophils into the peritoneum, the animals were injected with thioglycollate, a chemical irritant. Twenty hours after this first injection, the animals were given an intraperitoneal injection of zymosan, which stimulates phagocytes to produce H2 O2 and secrete myeloperoxidase into the phagolysosome (6). Thioglycollate-injected mice typically yielded 20-40×10^6 peritoneal cells. Neutrophils, mononuclear cells, and eosinophils represented 67±4%, 30±4%, and<1% of the harvested phagocytes (n=6 animals).

[6] = tested on: peritoneal phagocytes of CGD mice; test: Protein-bound o,o'-dityrosine in peritoneal phagocytes, isotope dilution GC/MS, CGD mice; assay type: in vivo; details: 3 hours of zymosan stimulation, mice deficient in NADPH oxidase
Experimental: as §2
as §3, with “The leukocytes were activated 20 hours (h) later by intraperitoneal injection of zymosan (250 mg/kg). Control animals were injected with one ml of buffer A (138 mM NaCl, 3 mM KCl, 0.1 M sodium phosphate, pH 7.4). Prior to and every 2 h during urine collection, the animals were injected intraperitoneally with 2 ml of buffer A.” left out
as §4

**Q.** With `N[C@@H](Cc1ccc(O)c([N+](=O)[O-])c1)C(=O)O` [3-nitrotyrosine] as the compound, how does the “amount excreted into urine” value [1] read?
**A.** Minimal amounts

**Q.** For `NC(Cc1ccc(O)c(-c2cc(CC(N)C(=O)O)ccc2O)c1)C(=O)O` (centres unmarked) [o,o'-dityrosine], which “recovery of radioactive material in the urine (in words)” value ([2]; between 3 h and 4 h after intravenous injection) is on record?
**A.** recovered almost quantitatively

**Q.** And the “o,o'-dityrosine content of resident thioglycollate-elicited neutrophils” value ([3]; before zymosan)?
**A.** ~ 50 μmol per mol tyrosine

**Q.** With `N[C@@H](Cc1ccc(O)c(-c2cc(C[C@H](N)C(=O)O)ccc2O)c1)C(=O)O` [o,o'-[^14 C]dityrosine] as the compound, how does the “radiolabeled material lost from the blood” value ([2]; 5 min after intravenous injection) read?
**A.** more than 50%

**Q.** And the “radioactivity recovered in the urine” value ([2]; 1 h after intravenous injection)?
**A.** Thirty

**Q.** And the “radioactivity recovered in the urine” value ([2]; 3 h after intravenous injection)?
**A.** 65%

**Q.** And the “radioactivity recovered in the urine” value ([2]; 4 h after intravenous injection)?
**A.** 81%

**Q.** What about the “radiolabeled material in blood, liver, spleen, and heart” value ([2]; after intravenous injection) of the same compound?
**A.** essentially undetectable

**Q.** What about the “radiolabeled material present in kidney” value ([2]; after intravenous injection) of the same compound?
**A.** < 5%

**Q.** And the “apparent half-life in the blood (slower phase)” value ([2]; intravenous)?
**A.** ~ 30 min

**Q.** What about the “clearance kinetics from the blood” value ([2]; intravenous) of the same compound?
**A.** biphasic kinetics

**Q.** And the “radioactivity in urine co-migrating with authentic o,o'-[^14 C]dityrosine” value [4]?
**A.** More than 80%

**Q.** Which “eosinophils among harvested phagocytes” value ([5]; n=6 animals) does the source give for thioglycollate here?
**A.** < 1%

**Q.** And the “mononuclear cells among harvested phagocytes” value ([5]; n=6 animals)?
**A.** 30±4%

**Q.** And the “neutrophils among harvested phagocytes” value ([5]; n=6 animals)?
**A.** 67±4%

**Q.** What about the peritoneal cells yielded ([5]; thioglycollate-injected mice) of the same compound?
**A.** 20-40 ×10^6 peritoneal cells

**Q.** What does the source list for zymosan?
**A.** time of peak of protein-bound o,o'-dityrosine ([3]; after zymosan injection): 3 h; increase of o,o'-dityrosine in cellular proteins ([3]; neutrophils exposed to zymosan in vivo): 4 fold; o,o'-dityrosine in phagocyte proteins [6]: undetectable; increase in protein-bound dityrosine ([6]; p<0.0005): completely abrogated
